Our source for the IC50 values is patent US5063208A, “Peptidyl aminodiol renin inhibitors” (Abbott Laboratories, priority 1990, dated 1991).

Each structure is given as a SMILES string.

For the assay, the target named is T1, human renal renin (Homo sapiens, UniProt P00797).
T1 construct: human renal renin, free from acid proteolytic activity; from tissue
T1 sequence (P00797 67-406): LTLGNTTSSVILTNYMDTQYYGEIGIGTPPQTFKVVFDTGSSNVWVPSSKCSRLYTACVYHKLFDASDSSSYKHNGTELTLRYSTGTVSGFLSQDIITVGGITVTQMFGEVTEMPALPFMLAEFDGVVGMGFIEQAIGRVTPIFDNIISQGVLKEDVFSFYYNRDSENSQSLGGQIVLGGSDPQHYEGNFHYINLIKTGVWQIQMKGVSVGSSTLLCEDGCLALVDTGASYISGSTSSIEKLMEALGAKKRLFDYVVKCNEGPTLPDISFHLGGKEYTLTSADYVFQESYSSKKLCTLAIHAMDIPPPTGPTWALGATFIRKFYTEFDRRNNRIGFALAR
The assay can be described thus: Inhibition of human renal renin in vitro (angiotensin I formed measured by radioimmunoassay). Type of assay: biochemical. Conditions: human renal renin free from acid proteolytic activity, renin substrate human angiotensinogen, 37 degrees C, pH 6.0; read-out: IC50 (molar concentration required to cause 50% inhibition). The protocol: The compounds of the invention are also useful for treating congestive heart failure in a mammal. […] At the end of the incubation, the amount of angiotensin I formed is measured by radioimmunoassay and the molar concentration required to cause 50% inhibition, expressed as the IC50, is calculated.
With `CC(C)C[C@H](O)[C@H](O)[C@H](CC1CCCCC1)NC(=O)[C@H](Cn1cccn1)NC(=O)[C@@H](CC(=O)N(C)CCN1CCOCC1)Cc1ccccc1` [Example 140, (2R)-2-Benzyl-3-[(2-morpholin-4-ylethyl)methylaminocarbonyl]propionyl-L-(1-pyrazolyl)Ala Amide of (2S,3R,4S)-2-Amino-1-cyclohexyl-3,4-dihydroxy-6-methylheptane.], the IC50 turned out to be 0.12 nM.
In the case of `CCCC[C@H](NC(=O)[C@@H](CC(=O)N(C)CCc1ccccn1)Cc1ccccc1)C(=O)N[C@@H](CC1CCCCC1)[C@@H](O)[C@@H](O)CC(C)C` [Example 122, (2R)-2-Benzyl-3-[(2-pyridin-2-ylethyl)methylaminocarbonyl]propionyl-Nle Amide of (2S,3R,4S)-2-Amino-1-cyclohexyl-3,4-dihydroxy-6-methylheptane], the IC50 was found to be 0.43 nM.
As for `CC(C)C[C@H](O)[C@H](O)[C@H](CC1CCCCC1)NC(=O)[C@H](Cc1cscn1)NC(=O)[C@@H](CC(=O)N(C)CCn1cccn1)Cc1ccccc1` [Example 118, (2R)-2-Benzyl-3-[(2-pyrazol-1-ylethyl)methylaminocarbonyl]propionyl-L-(4-thiazolyl)Ala Amide of (2S,3R,4S)-2-Amino-1-cyclohexyl-3,4-dihydroxy-6-methylheptane], the IC50 worked out at 0.3 nM.
